Laboratory results: PMC4604124, “In Vitro Characterization of the Pharmacological Properties of the Anti-Cancer Chelator, Bp4eT, and Its Phase I Metabolites” (PLoS ONE, 2015)
Where “and” joins values, the source holds several entries; their conditions need not be identical. Equal entries are not always repeated.

Columns and labels:
[1] = Ascorbate oxidation assay (redox activity of iron complexes); type: biochemical;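 on %Fe 30min (ascorbate oxidation, Fe 100%), průměr: IBE 3 means excess free chelator over iron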;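 on %Fe 30min (ascorbate oxidation, Fe 100%): IBE 3 means excess free chelator over iron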;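 on %Fe 30min (ascorbate oxidation, Fe = 100%), single replicates: IBE 1 means iron-binding equivalents giving fully coordinated iron-chelator complexes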;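 on Change of absorbance, odečet 0 (time 0 subtracted), čas 10, průměr: IBE 3 means excess free chelator over 10 µM FeCl3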;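 on Change of absorbance, odečet 0 (time 0 subtracted), čas 10: IBE 3 means excess free chelator over 10 µM FeCl3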;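 on Change of absorbance, odečet 0 (time 0 subtracted), čas 20, průměr: 100 µM ascorbate with 10 µM FeCl3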;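 on Change of absorbance, odečet 0 (time 0 subtracted), čas 20: 100 µM ascorbate with 10 µM FeCl3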;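 on Change of absorbance, odečet 0 (time 0 subtracted), čas 30, průměr: 100 µM ascorbate with 10 µM FeCl3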;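 on Change of absorbance, odečet 0 (time 0 subtracted), čas 30: 100 µM ascorbate with 10 µM FeCl3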;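 on odečet 0 (reading minus time 0 reading) at čas 20, single replicates: IBE 1 means fully coordinated iron chelator complexes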;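 on odečet 0 (reading minus time 0 reading) at čas 30, průměr (mean): IBE 1 means fully coordinated iron chelator complexes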;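 on odečet 0 (reading minus time 0 reading) at čas 30, single replicates: IBE 1 means fully coordinated iron chelator complexes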;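 on raw reading at čas 20 (time 20), průměr (mean): IBE 1 means fully coordinated iron chelator complexes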;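 on raw reading at čas 20 (time 20), single replicates: IBE 1 means fully coordinated iron chelator complexes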;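 on raw reading at čas 30 (time 30), průměr (mean): IBE 1 means fully coordinated iron chelator complexes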;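 on raw reading at čas 30 (time 30), single replicates: IBE 1 means fully coordinated iron chelator complexes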
[2] = system: HCT116 human colorectal carcinoma cells; experiment: MTT cytotoxicity assay, HCT116 cells; type: cell-based; settings: for IC50: MTT
Procedure: For cytotoxicity experiments, cancer cells were seeded at a density of 5,000 (MCF-7), 10,000 (HL-60) or 2,000 cells/well (HCT116 and A549) in 96-well plates (TPP) for 24 h/37°C prior to the addition of examined agents. The non-cancerous cells, 3T3 and H9c2 cells, were cultured for 24 h/37°C in 96-well plates at a density of 10,000 cells/well, the medium was then changed to serum- and pyruvate-free DMEM (Sigma-Aldrich) and incubated with the cells for another 24 h/37°C. The cytotoxic effects of Bp4eT and its metabolites were studied at different concentrations after a 72 h/37°C incubation. In order to aid the dissolution of the lipophilic ligands, 0.1% dimethyl sulfoxide (v/v) (DMSO; Sigma-Aldrich) was present in the culture medium of all groups. At this concentration, DMSO had no effect on cellular proliferation or viability.
The viability of cells were determined using an MTT assay (Sigma-Aldrich) according to previously established methods. The optical density of soluble MTT was measured at λ = 570 nm, subtracting the λ = 690 nm background using a Tecan Infinite 200M plate reader (Tecan Group, Männedorf, Switzerland). The viability or proliferation of experimental groups was expressed as a percentage of the untreated controls (100%).
SigmaStat for Windows 3.5 (Systat Software, San Jose, CA, USA) statistical software package was utilized to analyze results. The data are expressed as the mean ± SD of a given number of experiments. Statistical significance was determined using a one-way ANOVA with a Bonferroni post-hoc test or Student’s t-test. The results were considered to be statistically significant when p < 0.05. The IC50 values were calculated using CalcuSyn 2.0 software (Biosoft, Cambridge, UK). Cell cycle analysis was evaluated using MultiCycle AV Software (Phoenix Flow Systems, San Diego, CA, USA).

[3] = sheet IBE 1, time 10, replicates
[4] = sheet IBE 1, time 20, replicates
[5] = sheet IBE 1, time 30, replicates

Compound: CCNC(=O)NN=C(c1ccccc1)c1ccccn1 [Z-Bp4eS, 2-benzoylpyridine 4-ethylsemicarbazone]
- %Fe 30min (ascorbate oxidation, Fe = 100%), single replicates ([1]; sheet IBE 1, 30min, Fe 100%, replicates): 100.6% and 105.4% and 99.81% and 137.6% and 115.7% and 98.81% and 93.49% and 86.5% and 81.2%
- raw reading at čas 0 (time 0), průměr (mean) ([1]; sheet IBE 1, time 0, mean of 9 readings): 0.8114
- raw reading at čas 0 (time 0), single replicates ([1]; sheet IBE 1, time 0, replicates of 2014-03-24 (two runs) and 2014-03-25): 0.8361 and 0.825 and 0.7812 and 0.7956 and 0.8012 and 0.8226 and 0.8158 and 0.7997 and 0.8255
- odečet 0 (reading minus time 0 reading) at čas 10, průměr (mean) ([1]; sheet IBE 1, time 10, mean): -0.03354
- raw reading at čas 10 (time 10), průměr (mean) ([1]; sheet IBE 1, time 10, mean of 9 readings): 0.7779
- odečet 0 (reading minus time 0 reading) at čas 10, single replicates [1, 3]: -0.0282 and -0.0302 and -0.027 and -0.05761 and -0.03481 and -0.02931 and -0.03593 and -0.03173 and -0.02703
- raw reading at čas 10 (time 10), single replicates [1, 3]: 0.753 and 0.7654 and 0.7742 and 0.765 and 0.781 and 0.7704 and 0.7896 and 0.8044 and 0.798
- odečet 0 (reading minus time 0 reading) at čas 20, průměr (mean) ([1]; sheet IBE 1, time 20, mean): -0.06288
- raw reading at čas 20 (time 20), průměr (mean) ([1]; sheet IBE 1, time 20, mean of 9 readings): 0.7486
- odečet 0 (reading minus time 0 reading) at čas 20, single replicates [1, 4]: -0.05822 and -0.05772 and -0.05662 and -0.09103 and -0.07213 and -0.05933 and -0.06186 and -0.05806 and -0.05096
- raw reading at čas 20 (time 20), single replicates [1, 4]: 0.723 and 0.7379 and 0.7446 and 0.7316 and 0.7437 and 0.7404 and 0.7637 and 0.7781 and 0.7741
- odečet 0 (reading minus time 0 reading) at čas 30, průměr (mean) ([1]; sheet IBE 1, time 30, mean): -0.09054
- raw reading at čas 30 (time 30), průměr (mean) ([1]; sheet IBE 1, time 30, mean of 9 readings): 0.7209
- odečet 0 (reading minus time 0 reading) at čas 30, single replicates [1, 5]: -0.08693 and -0.09103 and -0.08623 and -0.1189 and -0.09997 and -0.08537 and -0.08823 and -0.08163 and -0.07663
- raw reading at čas 30 (time 30), single replicates [1, 5]: 0.6943 and 0.7046 and 0.715 and 0.7038 and 0.7159 and 0.7144 and 0.7373 and 0.7545 and 0.7484
- %Fe 30min (ascorbate oxidation, Fe 100%), průměr ([1]; sheet IBE 3, 30min, Fe alone = 100%, mean (průměr) of the 9 replicates): 110.1%
- %Fe 30min (ascorbate oxidation, Fe 100%) ([1]; sheet IBE 3, 30min, Fe alone = 100%, single replicates): 104.7% and 99.68% and 110% and 146.8% and 116.1% and 111.6% and 112.3% and 95.38% and 93.85%
- Change of absorbance, odečet 0 (time 0 subtracted), čas 10, průměr ([1]; sheet IBE 3, time 10 minus time 0, mean (průměr)): -0.03903
- Change of absorbance, odečet 0 (time 0 subtracted), čas 10 ([1]; sheet IBE 3, time 10 minus time 0, single replicates): -0.0367 and -0.0322 and -0.0443 and -0.057 and -0.0434 and -0.0428 and -0.03948 and -0.02878 and -0.02658
- Change of absorbance, odečet 0 (time 0 subtracted), čas 20, průměr ([1]; sheet IBE 3, time 20 minus time 0, mean (průměr)): -0.07371
- Change of absorbance, odečet 0 (time 0 subtracted), čas 20 ([1]; sheet IBE 3, time 20 minus time 0, single replicates): -0.07156 and -0.06896 and -0.07856 and -0.1012 and -0.07529 and -0.07709 and -0.07424 and -0.05944 and -0.05704
- Change of absorbance, odečet 0 (time 0 subtracted), čas 30, průměr ([1]; sheet IBE 3, time 30 minus time 0, mean (průměr)): -0.1017
- Change of absorbance, odečet 0 (time 0 subtracted), čas 30 ([1]; sheet IBE 3, time 30 minus time 0, single replicates): -0.09723 and -0.09253 and -0.1021 and -0.1363 and -0.1078 and -0.1036 and -0.1028 and -0.0873 and -0.0859
- Therapeutic index, IC50 non-cancerous cells / IC50 neoplastic cells ([2]; 3T3/HCT116): >3.0
- Therapeutic index, IC50 non-cancerous cells / IC50 neoplastic cells ([2]; H9c2/HCT116): 1.0
- IC50 ([2]; HCT116, 72 h/37°C, mean ± SD, n ≥ 4): 337 ± 48.5 µM
- MTT, relative to control (0 = 100) ([2]; HCT116, 2 000 b/j, 1 μM, průměr (mean), sheet Z-Bp4eS): 98.02
- MTT, relative to control (0 = 100) ([2]; HCT116, 2 000 b/j, 1 μM, single experiment (date), sheet Z-Bp4eS): 92.9248 and 94.2078 and 101.373 and 103.589
- MTT, relative to control (0 = 100) ([2]; HCT116, 2 000 b/j, 3 μM, průměr (mean), sheet Z-Bp4eS): 95.04
- MTT, relative to control (0 = 100) ([2]; HCT116, 2 000 b/j, 3 μM, single experiment (date), sheet Z-Bp4eS): 90.3505 and 96.7506 and 97.8429 and 95.2259
- MTT, relative to control (0 = 100) ([2]; HCT116, 2 000 b/j, 10 μM, průměr (mean), sheet Z-Bp4eS): 92.27
- MTT, relative to control (0 = 100) ([2]; HCT116, 2 000 b/j, 10 μM, single experiment (date), sheet Z-Bp4eS): 90.1105 and 89.2672 and 98.2602 and 91.4504
- MTT, relative to control (0 = 100) ([2]; HCT116, 2 000 b/j, 30 μM, průměr (mean), sheet Z-Bp4eS): 89.97
- MTT, relative to control (0 = 100) ([2]; HCT116, 2 000 b/j, 30 μM, single experiment (date), sheet Z-Bp4eS): 84.3315 and 84.8984 and 97.3042 and 93.3561
- MTT, relative to control (0 = 100) ([2]; HCT116, 2 000 b/j, 100 μM, průměr (mean), sheet Z-Bp4eS): 81.81
- MTT, relative to control (0 = 100) ([2]; HCT116, 2 000 b/j, 100 μM, single experiment (date), sheet Z-Bp4eS): 79.36 and 76.1483 and 84.5307 and 87.1986
- MTT, relative to control (0 = 100) ([2]; HCT116, 2 000 b/j, 300 μM, průměr (mean), sheet Z-Bp4eS): 62.81
- MTT, relative to control (0 = 100) ([2]; HCT116, 2 000 b/j, 300 μM, single experiment (date), sheet Z-Bp4eS): 53.0737 and 67.0105 and 63.0816 and 68.093
- MTT, relative to control (0 = 100) ([2]; HCT116, 2 000 b/j, 1000 μM, průměr (mean), sheet Z-Bp4eS): 14.99
- MTT, relative to control (0 = 100) ([2]; HCT116, 2 000 b/j, 1000 μM, single experiment (date), sheet Z-Bp4eS): 11.223 and 18.8694 and 13.6196 and 16.2655
- IC50 ([2]; HCT116, 2 000 b/j, single experiment (date), sheet Z-Bp4eS): 350 µM and 338 µM and 388 µM
- IC50 ([2]; Homo sapiens, HCT-116, HCT116, 2 000 b/j, průměr (mean), sheet Z-Bp4eS): 337 µM
- IC50 ([2]; Homo sapiens, HCT-116, HCT116, 2 000 b/j, single experiment (date), sheet Z-Bp4eS): 272 µM
